Data published in US20190071670A1, “Methods Of Treatment For Alpha-1 Antitrypsin Deficiency” (Arrowhead Pharmaceuticals, Inc., priority 2016, published 2019).

System: Z-AAT globules
Test: PAS-D staining and digital quantitation of Z-AAT globules in PiZ mouse liver
Type: in vivo, human (expressed in PiZ mice)
Details: for area of the liver covered with globules reduced / smaller globules: 6 month old female PiZ mice, single IV 8 mg/kg + 8 mg/kg MLP delivery polymer
Procedure: AAT RNAi agent was administered to PiZ mice. Each mouse received a biweekly administration of an intravenous (IV) dose of 8 mg/kg AAT RNAi agent with 8 mg/kg of MLP delivery polymer for 8 weeks. Mice were bled weekly to monitor hAAT levels in serum and were sacrificed on day 57 after administration of AAT RNAi agent with MLP delivery polymer. Liver samples were harvested and fixed in 10% neutral-buffered formalin and embedded in paraffin. Inflammatory infiltration was assessed by H&E staining. […] PiZ mice injected biweekly with saline had significant globule accumulation as well as inflammatory infiltration around damaged or dead hepatocytes. Aggregation of Z-hAAT was visualized by performing diastase-resistant periodic acid Schiff (PAS-D) staining on liver sections. Diastase digestion of glycogen prior to performing a PAS stain allows positive staining of Z-AAT protein accumulation, or “globules”. […] The number of globules, the size of the globules and the area of the liver covered by globules was digitally quantitated from liver specimens stained with PAS-D. Mice treated with AAT RNAi agent had 85% fewer globules, 85% smaller globules, and 96% less area of the liver covered with globules than saline-injected controls (FIG. 3).
Human AAT protein levels in serum were monitored for 29 days. At the indicated times, blood samples were collected and assayed for hAAT by ELISA. Day 1 samples were collected prior to trigger administration. For mRNA analysis, 3-4 mice were euthanized at each of days 3, 8, 15, 22, and 29. For euthanized mice, cardiac stick were performed for serum isolation for AAT ELISA (200 μl serum). Half of the left lateral liver lobe was collected and snap-freeze in liquid nitrogen for RNA isolation. The remainder of the left lobes were embedded into paraffin blocks for PAS-D staining with hematoxylin as counter-stain. Serum hAAT levels in mice given AAT Duplex Pair SEQ ID NO: 5/6 were 95% reduced on day 8 and remained reduced to day 29, at which time they were 79% reduced. Mice given AAT Duplex Pair SEQ ID NO: 5/6 were euthanized at either day 3, 8, 15, 22 or 29. Mice given saline or Luciferase siRNA control (SEQ ID 7/8) were euthanized on day 29. Levels of hAAT mRNA in the livers were measured by RT-qPCR. The hAAT mRNA in mice given AAT Duplex Pair SEQ ID NO: 5/6 was reduced by 97% on day 3 and remained reduced on day 29, at which time levels were 56% reduced. The size of the globules and the area of the liver covered by globules was digitally quantitated from liver specimens stained with PAS-D. Duplex Pair SEQ ID NO: 5/6 treated mice had 70% smaller globules at day 15 and 62% smaller globules at day 29. The area of the liver covered with globules was 83% reduced on day 15 and 72% reduced on day 29 (FIG. 5).

[1] = PiZ mice, four biweekly IV doses 8 mg/kg with 8 mg/kg MLP delivery polymer over 8 weeks, PAS-D

## Duplex Pair SEQ ID NO: 5/6: double-stranded AAT RNAi agent: modified antisense strand SEQ ID NO: 5 annealed to Chol-TEG sense strand SEQ ID NO: 6 (antisense TGGAACUUGGUGAUGAUAUTT; sense UAUAUAUCAUCACCAAGUUCCAT; Chol-TEG on sense strand; chemical modifications; antisense strand of dsRNA; modified_base 7 /mod_base = “2′-3′ seco corresponding nucleotide”; modified_base 2,4,6,8,10,12,14,16,18 /mod_base = “2′-deoxy-2′-fluoro corresponding nucleoside”; modified_base 3,5,9,11,13,15,17,19 /mod_base = “2′-O-methyl corresponding nucleoside”; modified_base 21 /mod_base = “5′-phosphorothioate corresponding nucleotide”; sense strand of dsRNA; modified_base 2 /mod_base = “2′-hydroxy corresponding nucleoside”; modified_base 4,6,8,10,12,14,16,18,20,22 /mod_base = “2′-deoxy-2′-fluoro corresponding nucleoside”; …)
Day 15
  area of the liver covered with globules reduced: 83%
  smaller globules: 70%
Day 29
  area of the liver covered with globules reduced: 72%
  smaller globules: 62%
[1]
  fewer globules (number of globules) than saline-injected controls: 85%
  less area of the liver covered with globules than saline-injected controls: 96%
  smaller globules (size of the globules) than saline-injected controls: 85%
